Legend:
Type in all cases: in vivo, mouse
Lmna^H222P/H222P mice = test: Pilot study: echocardiography at 24 weeks of age, treatment from 19 to 24 weeks; conditions: 3 mg/kg/day from 19 to 24 weeks, pilot study n=3
Protocol: SP600125, an anthrapyrazolone inhibitor of JNK, and PD98059, a 2′-amino-3′-methoxyflavone MAPK/ERK kinase (MEK) ½ inhibitor, (Calbiochem) were dissolved in dimethyl sulfoxide (DMSO) (Sigma) at a concentration of 1 mg/ml and were delivered to a dose of 3 mg/kg/day for 5 days a week. The placebo control consisted of DMSO alone and was delivered in the same volume. Placebo and inhibitors were administered by intraperitoneal injection using a 27⅝-gauge syringe. Treatments were started when mice were 16 weeks of age and continued until 20 weeks of age or when the mice were 19 weeks and continued until 24 weeks of age.
At 20 weeks or 24 weeks of age, mice were anesthetized with 1.5% isoflurane in O2 and placed on a heating pad (37° C.). Cardiac function was assessed by echocardiography with a Visualsonics Vevo 770 ultrasound with a 30 MHz transducer applied to the chest wall. Cardiac ventricular dimensions and fractional shortening (FS) were measured in 2D mode and M-mode three times in a modified short axis view for the number of animals indicated. A “blinded” echocardiographer (J.S.), unaware of the genotype or treatment, performed the examinations.
In a pilot study, we assessed treatment of Lmna^H222P/H222P mice with PD98059 and SP600125 at a more advanced stage of disease and for a longer time. […]

[1] = tested on: hearts from Lmna^H222P/H222P mice; test: Quantitative real-time RT-PCR of mRNAs in hearts of treated mice; conditions: for expression of Colla1, Colla2 and Fn1 / expression of Mlc-2a, NppA and NppB mRNAs: 20 weeks of age, 3 mg/kg/day from 16 to 20 weeks
Excerpt: Total RNA was extracted using the Rneasy isolation kit (Qiagen) as previously described (96). cDNA was synthesized as previously described (96) using Omniscript Reverse Transcriptase (Qiagen) on total cellular RNA. For each replicate in each experiment, RNA from tissue samples of different animals was used. Primers were designed that correspond to mouse RNA sequences using Primer3 (http://frodo.wi.mit.edu/cgi-biniprimer3/primer3_www.cgi). The real-time RT-PCR reaction contained iQ SYBR green super mix (Bio-Rad), 200 nM of each primer and 0.2 μl of template in a 25 μl reaction volume. Amplification was carried out using appropriate primers and the MyiQ Single-Color Real-Time PCR Detection System (Bio-Rad) with an initial denaturation at 95° C. for 2 min followed by 50 cycles at 95° C. for 30 s and 62° C. for 30 s. Relative levels of mRNA expression were calculated using the CT method (67). Individual expression values were normalized by comparison with Gapdh mRNA.
Real-time reverse transcription-PCR (RT-PCR) was used to quantify tissue RNA levels. Total RNA was extracted from cardiac ventricles of mice using the Rneasy isolation kit (Qiagen) as previously described. cDNA was synthesized using Superscript first strand synthesis system according to the manufacturer's instructions (Invitrogen) on total RNA. For each replicate in each experiment, RNA from tissue samples of different animals was used. Primers were designed correspond to mouse RNA sequences using Primer3 (http://frodo.wi.mit.edu/cgi-bin/primer3/primer3_www.cgi) for Nppa (forward 5′-[…]-3′ [SEQ ID NO: 4], reverse 5′-[…]-3′ [SEQ ID NO: 5]), Nppb (forward 5′-[…]-3′ [SEQ ID NO: 6], reverse 5′-[…]-3′ [SEQ ID NO: 7]), Mlc-2a (forward 5′-[…]-3′ [SEQ ID NO: 8], reverse 5′-[…]-3′ [SEQ ID NO: 9]), Colla1 (forward 5′-[…]-3′ [SEQ ID NO: 10], reverse 5′-[…]-3′ [SEQ ID NO: 11]), Colla2 (forward 5′-[…]-3′ [SEQ ID NO: 12], reverse 5′-[…]-3′ [SEQ ID NO: 13]) and Fn1 (forward 5′-[…]-3′ [SEQ ID NO: 14], reverse 5′-[…]-3′ [SEQ ID NO: 15]). The real-time RT-PCR reaction contained iQ SYBR green super mix (Bio-Rad), 200 nM of each primer, and 0.2 μl of template in a 25 μl reaction volume. Amplification was carried out using the MyiQ Single-Color Real-Time PCR Detection System (Bio-Rad) with an initial denaturation at 95° C. for […] followed by 50 cycles at 95° C. for 30 s and 62° C. for 30 s. Relative levels of mRNA expression were calculated using the ΔΔCT method (2). Individual expression values were normalized by comparison with Gapdh mRNA (forward 5′-[…]-3′ [SEQ ID NO: 16], reverse 5′-[…]-3′ [SEQ ID NO: 17]).

[2] = tested on: hearts from Lmna^H222P/H222P mice; test: Quantification of myocardial fibrotic area (Gomori's trichrome); conditions: 20 weeks of age; 3 mg/kg/day from 16 to 20 weeks; DMSO 15.01±0.9%
Excerpt: Later-stage cardiomyopathy caused by LMNA mutations is characterized by myocardial fibrosis. […] We quantified the myocardial fibrotic area of each animal by determining the ratio of fibrotic tissue (blue stained with Gomori's trichrome) to the total tissue area in each micrograph (FIG. 8B). Hearts from DMSO-treated Lmna^H222P/H222P mice had 20.93%±2.45% fibrotic tissue per total surface examined (FIG. 8B).
Mice were sacrificed at 20 weeks of age, and freshly removed hearts were fixed in 4% formaldehyde for 48 hours, embedded in paraffin, sectioned at 5 μm and stained with hematoxylin, eosin and Gomori's trichrome and Syrius Red. Representative stained sections were photographed using a Microphot SA (Nikon) light microscope attached to a Spot RT Slide camera (Diagnostic Instruments) with a 10× objective. Images were processed using Adobe Photoshop CS (Adobe Systems).
Later-stage cardiomyopathy caused by LMNA mutations is characterized by myocardial fibrosis (21,22). […] We quantified the myocardial fibrotic area of each animal by determining the ratio of fibrotic tissue (blue stained with Gomori's trichrome) to the total tissue area in each micrograph (FIG. 34C). Hearts from DMSO-treated Lmna^H222P/H222P mice had 15.01±0.9% fibrotic tissue per total surface examined (FIG. 34D).

[3] = pilot study, 24 weeks, treated from 19 weeks

SMILES | LV dilatation and FS compared to DMSO-treated mice (Lmna^H222P/H222P mice) | expression of Colla1, Colla2 and Fn1 [1] | expression of Mlc-2a, NppA and NppB mRNAs [1] | cardiac expression of Mlc-2a, NppA, Colla1 and Colla2 mRNAs [1, 3] | area of fibrotic tissue per total surface examined [2] | expression of Elk1, Elk4, Atf2 and Atf4 ([1]; hearts at 16 weeks, treated 8 to 16 weeks) | cardiac expression of NppB mRNA [1, 3]
O=C1c2ccccc2-c2n[nH]c3cccc1c23 [SP600125, anthra[1,9-cd]pyrazol-6(2H)-one] | trend toward decreased LV dilatation and increased FS | significantly lowered | significantly decreased | significantly reduced | 5.86%±0.4% |  | 
COc1cccc(-c2cc(=O)c3ccccc3o2)c1N [PD98059, 2-(2-amino-3-methoxyphenyl)-4H-1-benzopyran-4-one] | decreased LV dilatation and increased FS | significantly lowered | significantly decreased | significantly reduced | 4.48%±1% | decreased expression | significantly reduced

— US20110110916A1, “METHODS FOR TREATING AND/OR PREVENTING CARDIOMYOPATHIES BY ERK OR JNK INHIBITION” (priority 2008, published 2011)
